In patent US9017938B2, “Use of microrna-199b-5p in medical and diagnostic field” (Advanced Accelerator Applications, priority 2009, dated 2015):

Tests used:
MB cell lines = assay: AZA treatment, miR-199b-5p expression by real-time PCR; format: cell-based; conditions: two cell lines (Med8 and UV238) of a panel of five; 5 μM, 72 h
Procedure: Five MB cell lines (d283, Daoy, med8a, ons76, uw228) were grown in DMEM supplemented with 10% FBS and antibiotics. Upon reaching 85% confluence, the media was spiked with 5-aza-deoxycytidine (AZA) (Sigma) to a final concentration of 5 μM. Over 72 h the media was replaced daily with fresh AZA-enhanced medium. RNA was extracted using a standard phenol (TRIzol)-chloroform protocol.

Daoy cell line [1] = assay: DAPT treatment, miR-199b expression by real-time PCR; format: cell-based, human; conditions: 10 μM DAPT, 12 h, relative to time 0
Procedure: The reverse transcriptase (RT) reactions contained 40 ng RNA sample, 50 nM stem-loop RT primer, 1×RT buffer (P/N:4319981, Applied Biosystems), 0.25 mM each of dNTPs, […] MultiScribe RT (P/N: 4319983, Applied Biosystems) and […] RNase inhibitor (P/N: N8080119; Applied Biosystems). The 15 μl reactions were incubated in an Applied Biosystems 9700 Thermocycler for 30 min at 16° C., 30 min at 42° C., 5 min at 85° C., and then held at 4° C.
Real-time PCR was performed using a standard TaqMan PCR kit protocol on an Applied Biosystems 7900HT Sequence Detection System. The 20 μl PCR mix included 2 μl RT product, 10 μl TaqMan Universal PCR Master Mix (Applied Biosystems), […] TaqMan probe. The reactions were incubated in a 96-well plate at 95° C. for 10 min, followed by 60 cycles of 95° C. for 15 s and 60° C. for 1 min.
(§1) N—[N-(3,5-difluorophenacetyl)-l-alanyl]-S-phenylglycine t-butylester (DAPT (Sigma-Aldrich) treatment of the Daoy cells was performed as follows: the cells were plated and allowed to grow overnight in medium containing 10% FBS. The next morning, the medium was replaced with medium containing 10 μM DAPT and replaced each 4 h with this medium. The expression assays was performed after 0, 6, 12, 24 h of treatment […], using control experiments including the corresponding volume of DMSO as vehicle.

HES1 = assay: Western blotting of HES1 protein; format: cell-based, human; conditions: Daoy cell line, DAPT 12 h
Procedure: Thirty μg cytosolic or nuclear lysates were loaded onto 12% polyacrilamide gels, and blotted onto polyvinylidene difluoride membranes (PVDF; BioRad, Milan, Italy). The membranes were then incubated with anti-HES1 (kind gift of Dr. Tetsuo Sudo TORAY Industries, Tebiro Kamakura, Japan), a polyclonal rabbit antibody (1:500), an anti-GSK3-β (B&D Bioscience) monoclonal antibody (1:2500), an anti-c-Myc polyclonal rabbit antibody (1:200) (Santa Cruz Biotechnology, Santa Cruz, Calif., USA), an anti-GABRA6 antibody (Santa Cruz Biotechnology, Santa Cruz, USA) (1:200), an anti-MATH3 antibody (Santa Cruz Biotechnology, Santa Cruz, USA) (1:200) and an anti-cyclin D1 (1:200) polyclonal rabbit antibody (Cell Signaling). An anti-β-actin antibody (1:1.000) (Sigma) was used as the control for equal loading of cytosolic lysates and a polyclonal anti-β-laminin antibody (1:50) (Santa Cruz Biotechnology, Santa Cruz, Calif., USA) for equal loading of nuclear lysates.

Daoy cell line [2] = assay: DAPT treatment, stem-cell gene expression by real-time PCR; format: cell-based, human; conditions: Daoy + DAPT 12 h
Procedure: Total RNA was extracted from the cell lines using the Trizol reagent (Invitrogen). Synthesis of cDNA from total RNA (4 μg) was performed using a Super Script II First Strand Kit (Invitrogen). Real-time quantitative PCR was performed using standard protocols with an Applied Biosystems ABI PRISM 7900HT Sequence Detection system. To calculate the relative gene expression of the miR-199b-5p precursor, the relative amounts of each pre-miRNA were normalized to U6 miRNA; the other genes were normalized using the β-actin gene. Real-time PCR primers for each gene were designed using Primer Express software version 2.0 (Applied Biosystems). The primer sequences are available upon request.
as §1

Compound | miR-199b-5p expression (MB cell lines) | increase of miR-199b-5p level (Daoy cell line [1]) [fold] | HES1 protein (Western blot) (HES1) | CD 133 expression 2^-DCt (Daoy cell line [2]) | HMGA1 expression 2^-DCt (Daoy cell line [2]) | HMGB3 expression 2^-DCt (Daoy cell line [2]) | ILF3 expression 2^-DCt (Daoy cell line [2]) | KLF5 expression 2^-DCt (Daoy cell line [2]) | MYBL2 expression 2^-DCt (Daoy cell line [2]) | Nanog expression 2^-DCt (Daoy cell line [2]) | Oct4 expression 2^-DCt (Daoy cell line [2]) | PDGFR-A expression 2^-DCt (Daoy cell line [2]) | PDGFR-B expression 2^-DCt (Daoy cell line [2]) | SPARC expression 2^-DCt (Daoy cell line [2]) | TCF7L1 expression 2^-DCt (Daoy cell line [2]) | TEAD4 expression 2^-DCt (Daoy cell line [2]) | ZIC1 expression 2^-DCt (Daoy cell line [2]) | c-Myc expression 2^-DCt (Daoy cell line [2])
Nc1ncn([C@H]2C[C@H](O)[C@@H](CO)O2)c(=O)n1 [5-aza-deoxycytidine] | significant up-regulation | – | – | – | – | – | – | – | – | – | – | – | – | – | – | – | – | –
C[C@H](NC(=O)Cc1cc(F)cc(F)c1)C(=O)N[C@H](C(=O)OC(C)(C)C)c1ccccc1 [DAPT, N—[N-(3,5-difluorophenacetyl)-l-alanyl]-S-phenylglycine t-butylester] | – | 9 | down-regulation | 0.001237 | 0.004879 | 0.005577 | 0.04252 | 0.02368 | 0.003932 | 0.0004488 | 0.0007941 | 0.0000015 | 0.0000606 | 0.07977 | 0.0001026 | 0.005176 | 0.0002784 | 0.05427
